{
  "source": "a melting point compilation (Tetko et al.; mined from patent text by program, amines drawn as free bases though some values may be those of a salt)",
  "data": [
    {"units": {"melting point": "°C"}, "values": [
      {"smiles": "CO[C@@H]1[C@@H](OC)[C@H](C)O[C@@H](ON(Cc2ccc(-c3ncn(-c4ccc(OC(F)(F)F)cc4)n3)cc2)C(=O)CCC(=O)O)[C@@H]1OC", "melting point": "61 to 75"},
      {"smiles": "NCC(=O)N1CCC(C2c3ncc(Br)cc3CCc3cc(Cl)cc(Cl)c32)CC1", "note": "(single isomer, unassigned; (+))", "melting point": "81 to 122"},
      {"smiles": "N#Cc1ccc([C@H]2CC[C@H](CCC=O)CC2)cc1", "melting point": 30},
      {"smiles": "CCCOCCOc1ccc(OCC(O)CNCCNC(=O)N2CCOCC2)cc1", "note": "(configuration not stated)", "melting point": 88},
      {"smiles": "O=C(O)CCc1ccc(O[C@H]2CCc3ccccc32)cc1", "melting point": "112 to 113"},
      {"smiles": "CONc1ccc([N+](=O)[O-])cc1[N+](=O)[O-]", "melting point": "110 to 112"},
      {"smiles": "Cc1cc(SC2=C(O)CC(CCc3cc(Cl)c(N)c(Cl)c3)(C(C)C)OC2=O)c(C(C)(C)C)cc1N", "note": "(configuration not stated)", "melting point": "103 to 107"},
      {"smiles": "CC1CC2OC2C=CC=CC(=O)Cc2c(Cl)c(O)cc(O)c2C(=O)O1", "note": "(configuration not stated)", "melting point": 195},
      {"smiles": "Cc1ccc(Sc2cncc3sc(C=NOCC(N)=O)cc23)cc1", "melting point": "152 to 156"},
      {"smiles": "N#CC(=CC(=O)c1ccccc1)C(=O)O", "melting point": "74 to 75"},
      {"smiles": "CC1(C)CCOc2ccc(C3(C)C=CC=CC3C=O)cc21", "note": "(configuration not stated)", "melting point": "85 to 86"},
      {"smiles": "CCOC(=O)c1[nH]c(C)c(C)c1OCC1CO1", "note": "(configuration not stated)", "melting point": "70 to 71"},
      {"smiles": "CC(C)OC(=O)C1=C2SCC(=CC(=O)N(C)C)N2CC1", "melting point": "159 to 160"},
      {"smiles": "CCCCc1cc(C(=O)Nc2nnn[nH]2)nc(-c2ccc(N)cc2)c1", "melting point": "> 300"},
      {"smiles": "CC(C)C(=O)NCCCC1COCc2nc3c(N)nc4ccccc4c3n21", "note": "(configuration not stated)", "melting point": "207 to 208"},
      {"smiles": "COc1ccc(CCN2CCC(NC(=O)C34CC5CC(CC(C5)C3)C4)C2)cc1", "note": "(configuration not stated)", "melting point": "81 to 83"},
      {"smiles": "ClCc1coc(-c2sccc2Cl)n1", "melting point": "84 to 85"},
      {"smiles": "CCOC(=O)c1c(CCl)nc2sc(C)c(C)c2c1-c1ccc(OC)c(OC)c1", "melting point": "162 to 163"},
      {"smiles": "COc1cc2oc(=O)c3c(c2c(OC)c1OC)CCN(CC(C)=O)C3", "melting point": "114 to 116"},
      {"smiles": "Cn1c(C(F)(F)F)cc(=O)n(-c2cc(OCC#CCOc3ccccc3)c(Cl)cc2F)c1=O", "melting point": "142 to 144"},
      {"smiles": "OC1(Cn2cncn2)CCCC1Cc1ccc(-c2ccccc2)cc1", "note": "(configuration not stated)", "melting point": "145 to 148"},
      {"smiles": "CCCCc1c2c(nc3c1CCCC3)CCCC2", "melting point": "35 to 37"},
      {"smiles": "Cc1cc(CC(=O)N[C@H]2CC[C@H](CCN3CCN(c4nccc5c4CCO5)CC3)CC2)on1", "melting point": 172},
      {"smiles": "Cc1ccc(OC(F)C(F)(F)F)c([N+](=O)[O-])c1[N+](=O)[O-]", "note": "(configuration not stated)", "melting point": 35},
      {"smiles": "C=CCNC(=O)C1CCc2cc(C3CCCCC3)ccc2O1", "note": "(configuration not stated)", "melting point": "93 to 94"},
      {"smiles": "O=C(O)CN1C(=O)C(=Cc2c3ccccc3cc3ccccc23)SC1=S", "melting point": "277 to 279"},
      {"smiles": "CC1(C)CN=C2C(c3ccccc3)=[N+]([O-])c3cc(C(F)(F)F)ccc3N2C1", "melting point": "225 to 227"},
      {"smiles": "CS(=O)(=O)c1ccc(-c2nc(SCc3ccccc3)[nH]c2-c2ccc(F)cc2)cc1", "melting point": "155 to 156"},
      {"smiles": "Cc1cc(NC23N=CN=C2C=NC(N2CCC(C)CC2)=N3)[nH]n1", "note": "(configuration not stated)", "melting point": "> 300"},
      {"smiles": "CN1C(=O)CSc2c(NCc3cccc(OCc4ccc5ccccc5n4)c3)cccc21", "melting point": "102 to 104"},
      {"smiles": "COc1cc2c(c3c1OC(C)(C)C3)C(c1cccc(OCC(N)=O)c1)=NC(C)(C)C2", "melting point": "172 to 174"},
      {"smiles": "N#CCCSCc1csc(=O)[nH]1", "melting point": "108 to 111"},
      {"smiles": "C[C@@H]1C(=O)C=CN2c3ccccc3CC[C@@H]12", "note": "(relative stereo)", "melting point": "148 to 150"},
      {"smiles": "O=C(O)CCCC=C1CCCCCCCCCCC1", "melting point": "70 to 72"},
      {"smiles": "COc1c(C(C)=O)cnc2c(N)cccc12", "melting point": "76 to 77"},
      {"smiles": "CCCCCC(=O)c1c(O)oc(=O)c(C(=O)CCCCC)c1O", "melting point": "87 to 88"},
      {"smiles": "CC(=O)c1c(-c2ccncc2)sc(-c2ccncc2)c1C", "melting point": "137 to 138"},
      {"smiles": "COc1ccc(C2c3cc(OC)c(OC)cc3CCN2C(=O)NCCN(C(C)C)C(C)C)cc1OC", "note": "(configuration not stated)", "melting point": "114 to 115"},
      {"smiles": "CCOC(=O)c1c(Cl)nn(C)c1S(=O)(=O)NC(=O)OC", "melting point": "107 to 110"},
      {"smiles": "Cc1ccc2sc3cc(CC(=O)O)ccc3c2c1", "melting point": "185 to 187"},
      {"smiles": "CN1CCCC(O)(c2cccc3c2ccn3C)C1", "note": "(configuration not stated)", "melting point": 90},
      {"smiles": "CCCc1nn(-c2ccc(C(F)(F)F)cn2)cc1CCCCO", "melting point": "80 to 81"},
      {"smiles": "Nc1cc(C(=O)O)cc(S)c1Oc1ccccc1", "melting point": "199 to 200"},
      {"smiles": "c1cc(C2=NOC(C3CC3)(N3CCCC3)C2)ccn1", "note": "(configuration not stated)", "melting point": "80 to 85"},
      {"smiles": "COc1ccc2c(c1)NCC(c1ccccc1)O2", "note": "(configuration not stated)", "melting point": "95 to 100"},
      {"smiles": "COc1ccc(Cn2c(=O)cc(-c3nccn3C)c3cnc(SC)nc32)cc1Cl", "melting point": "218 to 220"},
      {"smiles": "O=C(O)c1cccc(Nc2nccc(-c3cccnc3)n2)c1", "melting point": "291 to 295"},
      {"smiles": "Cn1c(=O)c2c(NN)nccc2n(C)c1=O", "melting point": 244},
      {"smiles": "CCOC(=O)Cc1cccc(C(=O)c2ccc(Br)cc2)c1N", "melting point": "107 to 109"},
      {"smiles": "O=C(O)c1ccc(=O)n(NC(=O)c2cccnc2)c1", "melting point": "> 250"},
      {"smiles": "CCC(=O)C(C)Oc1cc(C(=O)OC)ccc1OC", "note": "(configuration not stated)", "melting point": "63 to 65"},
      {"smiles": "O=C(O)C1(S(=O)(=O)c2ccc(Oc3ccc(Cl)cc3)cc2)CCN(Cc2ccccc2)CC1", "melting point": 201}
    ]}
  ]
}
